In patent US20070110714A1 (priority 2003, published 2007):

Experiments:
VSV? G-G = format: cell-based
[1] = system: Monocyte-derived DCs from healthy donors (N-DC); assay: MICA/B expression in stimulated DC by flow cytometry (N-DC); format: cell-based, human; settings: N-DC stimulated 24 hours with cytokine at day 6
[2] = system: Monocyte-derived DCs from HCV-infected patients (HCV-DC); assay: MICA/B expression in stimulated DC by flow cytometry (HCV-DC); format: cell-based, human; settings: HCV-DC stimulated 24 hours with cytokine at day 6
pseudo type VSV-E1E2 [3] = format: cell-based
HCV-DC = assay: Cytokine production of stimulated HCV-DC, ELISA of culture supernatant; format: cell-based, human; settings: HCV-DC cultured 24 hours with 50 ng/ml IL-15
Description: (§1) N-DC and HCV-DC were stimulated with IFNa (1000 U/mL) for 24 hours(n=5 for each group). IL-15, IL-12p70, TNFa and IL-1β in each culture supernatant were measured by solid phase sandwich ELISA using a couple of specific monoclonal antibodies and a recombinant cytokine standard substance (IFNa/β, IL-12p70, TNFa and IL-1β, Endogen, Wobum, Mass.; IL-15, BD-Pharmingen). The limit thresholds of detection of these ELISA systems are as described below: IL-15, 3.7 pg/mL; IFNa/β, 17.5 pg/mL; IL-12p70, TNFa and IL-1β, 8.8 pg/mL.
(§2) N-DC and HCV-DC were cultured for 24 hours together with 50 ng/ml IL-15 in the presence or absence of an anti-IFNa/βR neutralization antibody (30 μg/mL)(n=5 for each group). IFNa and IFNβ in each culture supernatant were measured by ELISA.

NK cells [4] = assay: NK cells cultured with IL-15 alone (K562 cytolytic activity and IFN? production); format: cell-based, human; settings: newly isolated NK cells cultured 24 hours with 50 ng/mL IL-15, no DC
Description: (§3) The cytolysis assay was carried out as described below. Target cells (K562) labeled with ^51Cr were incubated for 4 hours at various effecter/target ratios, in NK/DC co-culturing (with or without trans well system) or NK cell single culturing. After incubation, the supernatant was recovered, and ? counting was conducted. Maximum release or natural release was defined as counting from a sample incubated with 5% Triton-X or a sample incubated with only the medium, respectively. The cytolysis activity was calculated according to the following formula: Lysis %=(experimental value of release−natural release)×100/(maximum release−natural release)
(§4) Intracellular IFN? expression of an NK cell was assayed as described below. NK cells cultured for 24 hours together with DC as described above were incubated together with 10 ng/ml PMA and 1 μmol/L ionomycin (Sigma Aldrich). Next, after incubation at 37° C. for 4 hours in the presence of 1 μl/mL GolgiPlug (registered trademark)(BD-Phanmngen), NK cells were stained at 4° C. for 30 minutes with a PE-labeled CD56 monoclonal antibody. The cells were treated with Cytofix/Cytoperm (registered trademark) buffering solution (BD-Pharmingen) at room temperature for 15 minutes, then, stained with a FITC-labeled-anti-IFN? monoclonal antibody (mouse IgG1). The stained cells were analyzed by flow cytometry. […]

N-DC = assay: Cytokine production of stimulated N-DC, ELISA of culture supernatant; format: cell-based, human; settings: N-DC cultured 24 hours with 50 ng/ml IL-15
Description: as §1, §2

NK cells [5] = assay: NK cell activation by co-culture with stimulated N-DC (K562 cytolytic assay, intracellular IFN? expression); format: cell-based, human
Description: (§5) NK cells were isolated from PBM of a healthy donor, and labeled with a concentrated antibody cocktail for NK cell, then, labeled with magnetic colloid (StemCell Technologies (Vancouver, BC, Canada)). 90% or more of the cells were CD56+CD3-lymphocytes. The concentrated NK cells were cultured with RPMI 1640 medium supplemented with 10% FCS and 10 U/mL penicillin/streptomycin, in a 24-well culture dish (5.0×10^5/well). DCs from a healthy individual (N-DC) or a HCV-infected individual (HCV-DC) were stimulated with IFNa (1000 U/mL) or IL-15 (50 ng/mL) for 24 hours, added to a well at a concentration of 1.0×10^5/mL, and co-cultured together with NK cells for 24 hours.
as §3, §4

NK cells [6] = assay: NK cell activation by co-culture with stimulated HCV-DC; format: cell-based, human; settings: NK cells co-cultured with cytokine-stimulated HCV-DC
Description: as §5
as §3, with “Maximum release or natural release was defined as counting from a sample incubated with 5% Triton-X or a sample incubated with only the medium, respectively.” left out
Intracellular IFN? expression of an NK cell was assayed as described below. […] The stained cells were analyzed by flow cytometry. […]

MDC = format: cell-based, human
pseudo type VSV-E1E2 [7] = format: cell-based; remark: listed apart in the source
HCV = format: cell-based
[8] = NK cells co-cultured 24 hours with cytokine-stimulated N-DC

| Molecule | sensitivity against VSV? G-G (percentage of GFP+ cells) (VSV? G-G) | MICA/B expression [1] | MICA/B expression [2] | percentage of VSV-E1E2-containing GFP+ cells (pseudo type VSV-E1E2 [3]) | other results |
| --- | --- | --- | --- | --- | --- |
| TNFa | decreased | did not induce MICA/B expression | did not induce MICA/B expression | decreased |  |
| IL-12: cytokine (R&D Systems) |  | did not induce MICA/B expression | did not induce MICA/B expression |  |  |
| O=C[C@H](O)[C@@H](O)[C@@H](O)[C@H](O)CO [galactose] |  |  |  |  | percentage of GFP+ cell having VSV-E1E2 (pseudo type VSV-E1E2 [3]): did not exert an influence |
| O=C(O)CN(CCN(CC(=O)O)CC(=O)O)CC(=O)O [EDTA] |  |  |  |  | percentage of GFP+ cell having VSV-E1E2 (pseudo type VSV-E1E2 [3]): did not decrease |
| GM-CSF: recombinant human GM-CSF (PeproTech) |  |  |  |  | proportion of GFP+ cells (median) (pseudo type VSV-E1E2 [3]): 1.5% |
| IL-18: cytokine (R&D Systems) |  | did not induce MICA/B expression | did not induce MICA/B expression |  |  |
| IL-15: cytokine (R&D Systems); claimed active ingredient, T cell growth factor stimulating dendritic cells |  | could apparently induce MICA/B | could apparently induce MICA/B |  | production of IFNa and IFNβ (HCV-DC): produced; activation of NK cells (K562 cytolytic activity and IFN? production) (NK cells [4]): could not activate NK cells; production of IFNa and IFNβ (N-DC): produced; IFN? production of NK cells (NK cells [5]; [8]): increase; cytolytic activity for K562 cells (NK cells [5]; [8]): increase; K562 cytolytic activity (NK cells [5]; trans well: NK cells and IL-15 (50 ng/mL)-stimulated N-DC separated by 0.4 μm membrane, 24 hours): did not show increase in cylolytic ability; activation of NK cells (NK cells [6]): activated NK cells |
| CpG ODN 2006 | not influenced |  |  | decreases significantly | expression of CD83 and CD86 (MDC): up-regulated |
| polyI:C | decreased |  |  | decreased |  |
| mannan |  |  |  |  | infection of VSV-E1E2 in HepG2 cells (pseudo type VSV-E1E2 [7]): did not inhibit; disturbing effect on infection of MDC with true HCV (HCV): confirmed; percentage of GFP+ cell having VSV-E1E2 (pseudo type VSV-E1E2 [3]): decreased in dose-dependent manner |
| IL-4: recombinant human IL-4 (PeproTech) (protein, UniProt P05112 25-153, looked up) Interleukin-4: HKCDITLQEIIKTLNSLTEQKTLCTELTVTDIFAASKNTTEKETFCRAATVLRQFYSHHEKDTRCLGATAQQFHRHKQLIRFLKRLDRNLWGLAGLNSCPVKEANQSTLENFLERLKTIMREKYSKCSS | not influenced |  |  | decreases significantly |  |
